One series has as its system Breast MDA-MB-468 cells. Kind of series: Cell proliferation, 24 h drug exposure. The series is classed as cell-based, human. As to the method: (§1) All metastatic (breast MDA-MB231, MDA-MB468, cervix HeLa, prostate PC3, colorectal HCT116, COLO205, glioblastoma U373), low-metastatic (breast MCF-7) cancer and non-cancer (fibroblast 3T3, cardiomyocytes H9C2) cell lines (American Type Culture Collection, Rockville, MD, USA) used in this study were cultured in Petri dishes in 20 mL of Dulbecco’s Modified Eagle’s Medium (DMEM, Sigma, MO, USA) supplemented with 10% fetal bovine serum (Biowest, Mexico) and 10,000 U penicillin/streptomycin (Sigma-Aldrich, MO, USA). […] For growth and maintenance, cells were incubated in 5% CO2/95% air at 37°C and kept until 80–90% of confluence was reached. Then, cells were harvested, washed by centrifugation and resuspended in Krebs-Ringer buffer (KR, 125 mM NaCl, 5 mM KCl, 25 mM Hepes, 1 mM MgCl2, 1 mM KH2PO4, 1.4 mM CaCl2, pH 7.4) for further use. For experimentation, cancer cells (3–5 x 10^6 cells) were cultured in DMEM (with 25 mM glucose) for 24 h in the absence of drugs. Afterwards, old-medium was replaced with fresh DMEM medium (with 25 mM glucose) in the absence (control, non-treated cells) or in the presence of logarithmic concentrations of Aur and MA for 24 h more, under the same culture conditions described above. Viability of cultured cells was determined by the trypan blue exclusion assay. The protein concentration was determined by the Lowry method.
(§2) For cell proliferation in the presence of drugs, cancer cells (20 x 10^3 cells/well) were grown in 96-well plates containing DMEM (Sigma-Aldrich) plus 10% bovine fetal serum for 24 h. Afterwards, Aur or MA (0.01, 0.1, 10 and 100 μM) were added to the cell cultures and incubated for additional 24 h. The effect of these drugs on cell proliferation was determined in 96-well plates by the MTT (3-[4,5-dimethyl-thiazol-2-yl]-2,5-diphenyltetrazolium bromide) assay. The viability of cancer cells was > 95% after treatment with drugs.

The test system of another series is Colorectal COLO205 cells. Kind of series: Cell proliferation, 24 h drug exposure. It counts as cell-based, human. As to the method: as §1, §2
Series [1] relates to HeLa, MDA-MB-231 and MDA-MB-468 cells. Kind of series: Cell invasiveness, Boyden chamber. It counts as cell-based, human. To be noted: Aur at IC50 (1.7, 0.8, 2 μM); 24 h. As to the method:
(§3) The 96-multiwell Boyden chambers (Merck Millipore, MA, USA) assay was performed for cellular invasiveness detection. Cancer cells (5 × 10^4 cells/well) were re-suspended in free-serum DMEM and placed in the upper Boyden chamber compartment. Free-serum DMEM was also placed in the lower compartment of the chamber. Afterwards, the Boyden chamber was placed at 37°C and 95% air/5% CO2 for 24 h. Invasive cancer cells within the lower chamber compartment were detected by using the calcein-AM (60 nM, 1 h) assay at 37°C. Calcein-fluorescence was measured at λexcitation = 485 nm and λemission = 520 nm in a Nunclon microplate reader (Roskilde, Denmark).
(§4) The Aur concentration added was 1.7, 0.8, 2 and 0.6 μM for HeLa, MDA-MB-231, MDA-MB-468 and U373 cells, respectively. n = 3; *p < 0.05, **p<0.01 vs. Control (Non-treated cells).

A further series deals with U373 glioblastoma cells. Kind of series: Cell invasiveness, Boyden chamber. To be noted: 0.6 μM Aur, 24 h. The series is classed as cell-based, human. As to the method: as §3, §4
Another series relates to HeLa cells. In words: Mitophagy assay (MTG/LTR co-localization). It counts as cell-based, human. The note with it: Aur 1.7 μM, 24 h. The procedure: The selective removal of damaged/inhibited mitochondria by autophagosomes and lysosomes (i.e., mitophagy) was detected by using an EVOS epifluorescence cell imaging microscope (ThermoFisher, Waltham MA, USA). HeLa cells (5 × 10^4 cells/mL) were cultured in 2 mL DMEM in glass bottom culture dishes and exposed to Aur for 24 h. HeLa cells were incubated with 400 nM Hoechst (Bis-Benzimide H 33342 trihydrochloride), 500 nM MitoTracker-Green FM and 500 nM LysoTracker-Red for 30 min at 37°C for nuclei, mitochondria and lysosome detection, respectively. Afterwards, cells were washed, resuspended with DMEM medium without red phenol and placed in the EVOS microscope for their analysis.
To establish which cell processes were associated to Aur-dependent OxPhos inhibition, mitochondrial digestion (mitophagy) and ROS production were assayed in HeLa cells (Fig 2). Mitophagy is the selective removal of dysfunctional or damaged mitochondria by autophagosomes, which is triggered by mitochondrial inner membrane depolarization and the generation of reactive oxygen species (ROS). Mitophagy was assessed by the number of lysosomes and their co-localization with mitochondria in LTR/MTG-loaded cells by epifluorescence microscopy. […] In addition, dead cells were previously removed for the dye loading procedure, thus discarding unspecific drug effects on mitophagy. […]

On the set-up of series [2]: method as in doi:10.1016/j.ccr.2017.02.015, PMID 36770718. The note with it: cited from earlier work.
A further series concerns MDA-MB-468 cells. In words: OxPhos flux (oligomycin-sensitive respiration) in intact cells. It counts as cell-based, human. To be noted: +MA 50 μM, 24 h. As to the method: For oxidative phosphorylation (OxPhos) flux, cells (2–5 mg protein/mL) were incubated at 37°C in air saturated KR medium plus 5 mM glucose. To distinguish the oxygen consumption associated to OxPhos, the cells were incubated with 5 μM oligomycin (Sigma-Aldrich, MO, USA), a potent, specific, and permeable inhibitor of the mitochondrial ATP synthase. The net OxPhos rate was determined by using a Clark type electrode, as previously described and by using a high-resolution respirometer (Oroboros Instruments, Innsbruck, Austria) at 37°C. The contribution of OxPhos and glycolysis to the cellular ATP supply was determined, respectively, from the net OxPhos rate (oligomycin-sensitive respiration) multiplied by the ATP/O or P»/O2 ratio that corresponds to 2.5 or 5, and from the rate of lactate production, assuming a stoichiometry of 1 mol of ATP produced per 1 mol of lactate produced.

The structures appear in SMILES notation.

`CC(=O)OC[C@H]1O[C@@H]([S-])[C@H](OC(C)=O)[C@@H](OC(C)=O)[C@@H]1OC(C)=O.CCP(CC)CC.[Au+]` [Aur, [1-(thio-κS)-β-D-glucopyranose-2,3,4,6-tetraacetyl] (triethylphosphine)-gold]: the IC50 was 2 ± 1 µM with Breast MDA-MB-468 cells (Breast MDA-MB-468, 24 h, read-out: IC50 for proliferation cell rate) and 6 ± 2 µM in the series on Colorectal COLO205 cells (Colorectal COLO205, 24 h, read-out: IC50 for proliferation cell rate). Moreover, the “TI ratio (3T3/ cancer cells)” value in the series on Breast MDA-MB-468 cells (IC50 3T3 / IC50 MDA-MB-468) is recorded as 21; in the series with Colorectal COLO205 cells (IC50 3T3 / IC50 COLO 205), 7. Besides, the “TI ratio (H9C2/cancer cells)” value with Breast MDA-MB-468 cells (IC50 H9C2 / IC50 MDA-MB-468) was determined as 39; in the series on Colorectal COLO205 cells (IC50 H9C2 / IC50 COLO 205), 13. In addition, the inhibition of invasiveness in series [1] is on record as 45–80%. Also, the “inhibition of cell invasiveness” value in the series on U373 glioblastoma cells came out at 75%. Also, in the series with HeLa cells, the “mitophagy (MTG mitochondria/LTR lysosomes co-localization)” value is “significant enhancement”. In addition, the “stability in aqueous media” value in series [2] is reported as “unstable”.

In the case of `Cc1ccc(Cl)c(Nc2ccccc2C(=O)O)c1Cl` [MA, Meclofenamic acid], the OxPhos flux in the series with MDA-MB-468 cells is given as 4.8 ± 0.8 nmol O2 min^-1 mg protein^-1.
